# Measured values taken from patent publication US12589114B2 (The Board of Trustees of the Leland Stanford Junior …, priority 2019, dated 2026).
# What was measured:
# [1] = target: T1, GABRR1 (Mus musculus, UniProt P56475); experiment: Complete blood cell counts in peripheral blood of mice treated with agonists or antagonists of Gabrr1; type: in vivo; settings: C57BL/6J mice, 7 days of treatment, injected once every day
# T1 construct: Mice were randomly grouped and injected once everyday using GABA agonists and antagonists; from tissue; host or cells: whole animal (C57BL/6J mice); read-outs in peripheral blood and bone marrow
# Description: (§1) Mouse injection. […] Muscimol 2 mg/kg, TACA 2 mg/kg and SR95531 4 mg/kg was injected by i.p. The mice were treated for 7 days and then complete blood cell counting was done with the HemaTrue Hematology Analyzer (HESKE).
# [2] = target: T1, GABRR1; experiment: Flow cytometry of bone marrow HSPC populations of mice treated with agonists or antagonists of Gabrr1; type: in vivo; settings: C57BL/6J mice, 7 days of treatment
# Description: as §1
# Flow Cytometry. Mouse bone marrow cells were harvested, washed, and resuspended in PBS containing 2% FBS, and subjected to the staining process with antibodies at their optimal concentrations. […] Then, to enrich HSCs and progenitor populations, cells were stained with APC-conjugated anti-c-Kit (2B8) and then with anti-APC magnetic beads (Miltenyi Biotec) after washing. The c-Kit+cells were eluted from LS columns (Miltenyi Biotec). Those cells then stained with the antibody cocktail directed against cell surface antigens as follows: for early progenitor analysis, Sca-1, Flk2, CD150, CD34, IL-7R, CD16/32, c-kit and the lineage markers Ter-119, B220, CD3, CD4, CD8a, Gr-1, CD11b, CD41. For late stage populations, cells were stained with antibodies specific for Sca-1, Endoglin [CD105], CD150, CD16/32, c-kit [CD117] and the lineage markers for 30 min at 4° C., DNA dye was used for the live/dead cells staining.
# Surface marker cocktail of mouse hematopoietic stem and progenitor populations: • HSC: Lin-c-kit+Sca1+CD150+Endoglin+ • MPP: Lin-c-kit+Sca1+Endoglin−CD150− • GMP: Lin-c-kit+Sca1− CD41−FcgRII+ • EP: Lin-c-kit+Sca1− CD41−FcgRII−Endogilin+CD150− • MkP: Lin-c-kit+Sca1− CD150+CD41+ • PreGM: Lin-c-kit+Sca1− CD41−FcgRII−Endogilin−CD150− • Pre CFU-E: Lin-c-kit+Sca1− CD41−FcgRII−Endogilin+CD150+ • MEP: Lin-c-kit+Sca1− CD41−FcgRII−Endogilin−CD150+.
# [3] = tested on: human CD34+ cells; experiment: Flow cytometry of HSPC populations after 7-day differentiation of human CD34+ cells treated with agonists or antagonists of GABRR1; type: cell-based
# Description: (§2) We treated human CD34+ cells with different agonists and antagonists of GABRR1.
# Cell Isolation and Culture. Human bone marrow mononuclear cells were purchased from AllCells and cultured in StemSpan™ Serum-Free Expansion Medium II (SFEM II, StemCell Technologies), supplemented with 20 ng/ml hSCF (PeproTech), hTPO, hIL-3, hIL-6 and Flt3 (R&D Systems). Mouse bone marrow mononuclear cells were isolated from mice and cultured in StemSpan™ SFEMI (StemCell Technologies), supplemented with mTPO and mSCF (PeproTech). […] Medium was changed every other day.
# Human bone marrow or cord blood cells were stained in a similar way using Rat IgG for blocking and PI for viability. Human cells were stained with the antibodies cocktails as follows: CD34, CD38, CD45RA, CD123, CD71, CD105, CD41 and the lineage markers CD2, CD4, CD8, CD11b/Mac-1, CD14, CD19, CD20, CD56 and CD235a. The GABRR1 antibodies were also used for staining (Bloss Antibodies).
# Surface marker cocktail of human hematopoietic stem and progenitor populations: • HSCs/MPPs: Lin-CD34+CD38− • MkP: Lin-CD34+CD38+CD123−CD45RA−CD41+ • CMP: Lin-CD34+CD38+CD123lowCD45RA− • MEP: Lin-CD34+CD38+CD123−CD45RA− • GMP: Lin-CD34+CD38+CD123+CD45RA+ • EP: Lin-CD34+CD38+CD123−CD45RA−CD71+CD150+.
# [4] = tested on: human CD34+ cells; experiment: CFU-MK colony-forming assay from CD34+ bone marrow cells; type: cell-based
# Description: as §2
# Colony-Forming Unit Assay. Colony forming assay was performed using the MegaCult™-C Complete Kit with Cytokines (Stemcell Tech, 04971)) following manufacturer's instruction, Colonies were counted after 12-14 days of culture and megakaryopoietic colonies were stained using antibody provided in the kit.
# [5] = target: T1, GABRR1; experiment: Patch-clamp recording of GABA-evoked currents in purified GR+ and GR− MkPs and HSCs; type: cell-based; settings: 1 mM GABA, whole-cell patch clamp
# From the text: Gabrr1^+ (GR^+) and Gabrr1^− (GR^−) HSCs or MkPs cells were then purified and tested by electrophysiological recording using patch-clamp techniques.
# Electrophysiology. Whole-cell voltage-clamped recordings were made from the dissociated blood cells perfused in oxygenated ACSF containing the following (in mM): 119 NaCl, 26 NaHCO3, 10 glucose, 1.25 NaH2PO4, 2.5 KCl, 2 CaCl2, 1 MgCl2, 2 Na-pyruvate, and 0.5 ascorbic acid, pH 7.4. […] Cells were voltage clamped at various levels between −80 mV to 60 mV. The pipette internal solution contains (in mM): 120 Cs—Cl, 20 tetraethylammonium-Cl, 20 HEPES, 2 EGTA, 4 MgATP, 0.4 NaGTP, 10 phosphocreatine.
# The drug was applied through a second pipette (resistance of 3-4 MΩ) connected to Picospritzer (Cleveland, OH, USA) at a pulse duration of 100 ms and pressure of 5-10 kPa.
# [6] = tested on: human CD34+ cells; experiment: Real-time PCR of megakaryocyte-related genes in 7-day differentiated cells from CD34+ bone marrow cells; type: cell-based
# Description: as §2
# RNA isolation and Real-Time PCR. Total RNA was extracted by RNeasy Plus Micro kit and RNeasy MinElute Cleanup Kit following manufacturer's instructions (Qiagen). Synthesis of cDNA was performed with the SuperScript™ III Reverse Transcriptase (ThermoFisher Scientific). Real time PCR was done using the Fast SYBR® Green Master Mix (ThermoFisher Scientific) on the 7900 Fast Real-Time PCR System (Applied Biosystems). PCR products were analyzed on a 2% agarose gel.
# [7] = 7-day differentiated human CD34+ cells, relative to non-treated cells
# T1 sequence (P56475 22-480): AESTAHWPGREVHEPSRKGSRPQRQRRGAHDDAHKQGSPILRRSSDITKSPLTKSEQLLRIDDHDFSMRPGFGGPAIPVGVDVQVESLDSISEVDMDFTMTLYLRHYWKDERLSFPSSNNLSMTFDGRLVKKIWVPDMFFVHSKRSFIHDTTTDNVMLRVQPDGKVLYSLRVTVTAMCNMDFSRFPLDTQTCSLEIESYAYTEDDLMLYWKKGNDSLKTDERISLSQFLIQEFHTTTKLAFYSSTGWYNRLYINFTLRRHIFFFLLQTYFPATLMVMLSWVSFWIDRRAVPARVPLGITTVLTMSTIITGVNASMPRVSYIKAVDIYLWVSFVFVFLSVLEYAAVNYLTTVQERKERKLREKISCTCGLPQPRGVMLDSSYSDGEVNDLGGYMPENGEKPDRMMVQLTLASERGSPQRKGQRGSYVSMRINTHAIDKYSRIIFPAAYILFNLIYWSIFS
Structure (SMILES),Increase of platelet numbers [1],Increase of bone marrow MkPs [2],"Change of CD34+CD41+ population (MkP) [3, 7]","Change of CD34+CD71+ population (EP) [3, 7]","Frequency of all HSPCs tested ([3]; multicolor flow cytometry, 7 days of differentiation from CD34+ bone marrow cells)","MkP frequency relative to non-treated cells ([3]; multicolor flow cytometry, 7 days of differentiation from CD34+ bone marrow cells, non-treated set to 1)",Decrease in megakaryocyte colonies [4],GABA-induced currents in GR+ HSCs [5],GABA-induced inward current in GR+ MkP cells ([5]; various membrane potentials),Megakaryocyte-related gene expression [6]
"NCc1cc(=O)[nH]o1 [Muscimol, muscimol]",35.0%±13%,55.0%±26.7%,–,–,–,–,–,–,–,–
Br.COc1ccc(-c2ccc(=N)n(CCCC(=O)O)n2)cc1 [SR95531],did not affect platelet number significantly,–,decreased dramatically,decreased dramatically,decreased the frequency of all HSPCs tested,40.3%±13.6%,40%,–,–,–
"NC/C=C/C(=O)O [TACA, trans-4-aminocrotonic acid]",24.6%±19.0%,23.3%±31.1%,–,–,–,–,–,–,–,–
"NCCCC(=O)O [GABA, 4-aminobutanoic acid]",–,63.7%±24.4%,–,–,–,–,–,significant currents were induced,prominent GABA-induced inward current,significantly increased
